The values that follow are results of earlier work, collected in patent US20050239743A1, “Compositions and methods to inhibit restenosis” (Pro-Pharmaceuticals, Inc., priority 2004, published 2005).

For this series the following is noted: long-term use 10,000 units/day, s.c., following coronary angioplasty.

As to heparin, the abnormal hemorrhage supervening is reported as 41%. The “coronary restenosis, share of the cases” value (control restenosis value 33%) is on record as 82%.
